Reference: ChEMBL document CHEMBL1158807, “Azadirachtin derivatives from seed kernels of Azadirachta excelsa” (J Nat Prod, 2005)

Key:
Type in all cases: organism-based
Settings in all cases: in vivo
Plutella xylostella [1] = test: Toxicity in Plutella xylostella larvae after 72 hrs
Plutella xylostella [2] = test: Toxicity in Plutella xylostella larvae after 24 hrs
Plutella xylostella [3] = test: Toxicity in Plutella xylostella larvae after 48 hrs
Plutella xylostella [4] = test: Toxicity in Plutella xylostella larvae after 96 hrs

Compound | LD50 (Plutella xylostella [1]) [µg/g] | LD50 (Plutella xylostella [2]) [µg/g] | LD50 (Plutella xylostella [3]) [µg/g] | LD50 (Plutella xylostella [4]) [µg/g]
C/C=C(\C)C(=O)O[C@H]1C[C@@H](OC(C)=O)[C@@]2(C(=O)OC)CO[C@H]3[C@@H](O)[C@@](C)([C@]45O[C@@]4(C)[C@H]4C[C@@H]5O[C@@H]5OC=C[C@@]54O)[C@@H]4[C@@H](O)OC[C@@]14[C@@H]32 | 1.38 | 5.75 | 4.2 | 0.75
C/C=C(\C)C(=O)O[C@H]1C[C@@H](OC(C)=O)[C@@]2(C(=O)OC)CO[C@H]3[C@@H](O)[C@@](C)([C@]45O[C@@]4(C)[C@@H]4C[C@H]5O[C@@H]5OC=C[C@@]54O)[C@H]4[C@]1(CO[C@]4(O)C(=O)OC)[C@@H]32 [AZADIRACHTIN A] | 1.28 | 7.04 | 4.12 | 0.87
C/C=C(\C)C(=O)O[C@@H]1C[C@H](O)[C@]23CO[C@H](C(=O)OC)[C@H]2[C@](C)([C@]24O[C@@]2(C)[C@H]2C[C@@H]4O[C@@H]4OC=C[C@@]42O)[C@H](O)[C@@H]2OC[C@@]1(C(=O)OC)[C@H]23 [AZADIRACHTIN B] | 1.56 | 4.85 | 2.26 | 1.06
C/C=C(\C)C(=O)O[C@H]1C[C@@H](OC(C)=O)[C@@]2(C(=O)OC)CO[C@H]3[C@@H](O)[C@@](C)([C@]45O[C@@]4(C)[C@H]4C[C@@H]5O[C@@H]5OC=C[C@@]54O)[C@@H]4[C@@H](OC(C)=O)OC[C@@]14[C@@H]32 [AZADIRACHTIN L] | 5.39 | 10.27 | 7.89 | 1.92
COC(=O)[C@H]1OC[C@]23[C@@H]1[C@](C)([C@]14O[C@@]1(C)[C@H]1C[C@@H]4O[C@@H]4OC=C[C@@]41O)[C@H](O)[C@@H]1OC[C@](C(=O)OC)([C@H](O)C[C@@H]2O)[C@H]13 [AZADIRACHTOL] | 2.35 | 4.88 | 3.28 | 1.78
COC(=O)[C@@]12CO[C@H]3[C@@H](O)[C@@](C)([C@]45O[C@@]4(C)[C@H]4C[C@@H]5O[C@@H]5OC=C[C@@]54O)[C@@H]4[C@@H](O)OC[C@]4([C@@H](OC(=O)CC(C)C)C[C@H]1OC(C)=O)[C@@H]32 [AZADIRACHTIN P] | 1.19 | 2.19 | 1.73 | 0.79
COC(=O)[C@H]1OC[C@@]23[C@@H](OC(C)=O)C[C@@H](OC(C)=O)[C@@]4(C(=O)OC)CO[C@@H]([C@@H](O)[C@@](C)([C@]56O[C@@]5(C)[C@H]5C[C@@H]6O[C@@H]6OC=C[C@@]65O)[C@H]12)[C@@H]43 [AZADIRACHTIN Q] | 1.4 | 5.95 | 1.89 | 1.1
COC(=O)[C@H]1OC[C@@]23[C@@H](OC(=O)CC(C)C)C[C@@H](OC(C)=O)[C@@]4(C(=O)OC)CO[C@@H]([C@@H](O)[C@@](C)([C@]56O[C@@]5(C)[C@H]5C[C@@H]6O[C@@H]6OC=C[C@@]65O)[C@H]12)[C@@H]43 [AZADIRACHTIN O] | 1.19 | 3.92 | 1.92 | 0.79
C/C=C(\C)C(=O)O[C@H]1C[C@@H](OC(C)=O)[C@@]2(C(=O)OC)CO[C@H]3[C@@H](O)[C@@](C)([C@]45O[C@@]4(C)[C@H]4C[C@@H]5O[C@@H]5OC=C[C@@]54O)[C@@H]4[C@@H](C(=O)OC)OC[C@@]14[C@@H]32 [AZADIRACHTIN M] | 4.23 | 8.46 | 4.84 | 1.3
